Structures can show the parent of a compound that is named as a salt.
Test system: Acinetobacter baumannii ATCC 17978
Assay: Antimicrobial susceptibility testing: 90% growth inhibitory concentration (IC90) determination
Assay type: cell-based
Conditions: 90% growth inhibitory concentration; Acinetobacter baumannii ATCC17978; Iso-Sensitest broth, OD 600 nm over 16h; read-out: ATCC17978 IC90
Method in brief: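 Compounds serially twofold diluted (e.g. 50 to 0.097 μM final) in Iso-Sensitest broth, inoculated at ~5×10^(5) CFU/ml, incubated at 35±2° C. OD600 read every 20 minutes over 16h. IC90 taken as concentration inhibiting 90% of growth during logarithmic phase.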

`CNCC1CN(CCN(C)C(=O)c2ccc(Nc3nccn4c(-c5ccc(OC)c(F)c5)cnc34)cc2C)CCO1` (stereo not drawn) [Example 109, 4-[[3-(3-fluoro-4-methoxy-phenyl)imidazo[1,2-a]pyrazin-8-yl]amino]-N,2-dimethyl-N-[2-[2-(methylaminomethyl)morpholin-4-yl]ethyl]benzamide hydrochloride] was tested. Which IC90 did it give?
Its IC90 is 960 nM.

`COc1ccc(-c2cnc3c(Nc4ccc(C(=O)N(C)CC5CCOCC5)c(Cl)c4)nccn23)c(F)c1F` [Example 41, 2-chloro-4-[[3-(2,3-difluoro-4-methoxy-phenyl)imidazo[1,2-a]pyrazin-8-yl]amino]-N-methyl-N-(tetrahydropyran-4-ylmethyl)benzamide; 2,2,2-trifluoroacetic acid] was tested. Which IC90 did it give?
Its IC90 is 620 nM.

Which IC90 does the source give for `CCc1cc(Nc2nccn3c(-c4ccc(OC(F)F)c(F)c4F)cnc23)ccc1C(=O)NC(CC)CCN` (stereo not drawn) [Example 317, N-(1-aminopentan-3-yl)-4-[[3-[4-(difluoromethoxy)-2,3-difluorophenyl]imidazo[1,2-a]pyrazin-8-yl]amino]-2-ethylbenzamide; hydrochloride] here?
The IC90 was 2500 nM.

Which IC90 does the source give for `CCc1cc(Nc2nccn3c(-c4ccc(OC)c(F)c4F)cnc23)ccc1C(=O)N[C@H](CN)C(=O)OC` [Example 310, methyl (2R)-3-amino-2-[[4-[[3-(2,3-difluoro-4-methoxyphenyl)imidazo[1,2-a]pyrazin-8-yl]amino]-2-ethylbenzoyl]amino]propanoate; hydrochloride] here?
The IC90 was 800 nM.

Which IC90 does the source give for `COc1ccc(-c2cnc3c(Nc4ccc(C(=O)N(C)CC5CCOCC5)c(C)c4)nccn23)cc1F` [Example 35, 4-[[3-(3-fluoro-4-methoxy-phenyl)imidazo[1,2-a]pyrazin-8-yl]amino]-N,2-dimethyl-N-(tetrahydropyran-4-ylmethyl)benzamide; 2,2,2-trifluoroacetic acid] here?
Its IC90 is 1200 nM.

Same assay, conditions: Acinetobacter baumannii, ATCC17978, 16 h, 90% growth inhibitory concentration; Acinetobacter baumannii ATCC17978; Iso-Sensitest broth, OD 600 nm over 16h; read-out: ATCC17978 IC90

For `CCc1cc(Nc2nccn3c(-c4ccc(OC(F)F)c(F)c4F)cnc23)ccc1C(=O)NCCCO[C@H]1O[C@H](CO)[C@@H](O)[C@H](O)[C@H]1O` [Example 328, 4-[[3-[4-(difluoromethoxy)-2,3-difluorophenyl]imidazo[1,2-a]pyrazin-8-yl]amino]-2-ethyl-N-[3-[(2S,3R,4S,5S,6R)-3,4,5-trihydroxy-6-(hydroxymethyl)oxan-2-yl]oxypropyl]benzamide], which IC90 is on record?
Its IC90 is 300 nM.

For `COc1ccc(-c2cnc3c(Nc4ccc(C(=O)N[C@H](C)CN)c(Cl)c4)nccn23)c(F)c1F` [Example 504, #N!-[(2#R!)-1-aminopropan-2-yl]-2-chloro-4-[[3-(2,3-difluoro-4-methoxyphenyl)imidazo[1,2-a]pyrazin-8-yl]amino]benzamide;dihydro-chloride], which IC90 is on record?
Its IC90 is 100 nM.

`COc1ccc(-c2cnc3c(Nc4ccc(C(=O)NCC5CCCOC5)c(C)c4)nccn23)cc1F` (stereo not drawn) [Example 72, 4-((3-(3-fluoro-4-methoxyphenyl)imidazo [1,2-a]pyrazin-8-yl)amino)-2-methyl-N-((tetrahydro-2H-pyran-3-yl)methyl)benzamide] was tested. Which IC90 did it give?
The IC90 was 1000 nM.

For `Cc1cc(Nc2nccn3c(-c4ccc(Cl)c(F)c4F)cnc23)ccc1C(=O)NCCCN` [Example 214, N-(3-aminopropyl)-4-[[3-(4-chloro-2,3-difluorophenyl)imidazo[1,2-a]pyrazin-8-yl]amino]-2-methylbenzamide;hydrochlo-ride], which IC90 is on record?
The IC90 was 690 nM.

Which IC90 does the source give for `Cc1cc(Nc2nccn3c(-c4ccc(Cl)c(F)c4F)cnc23)ccc1C(=O)NCCC1CCN(C)CC1` [Example 244, 4-[[3-(4-chloro-2,3-difluorophenyl)imidazo[1,2-a]pyrazin-8-yl]amino]-2-methyl-N-[2-(1-methylpiperidin-4-yl)ethyl]benzamide] here?
Its IC90 is 440 nM.

Which IC90 does the source give for `CCc1cc(Nc2nccn3c(-c4ccc(OCC#N)c(F)c4F)cnc23)ccc1C(=O)NCCCN` [Example 299, N-(3-aminopropyl)-4-[[3-[4-(cyanomethoxy)-2,3-difluorophenyl]imidazo[1,2-a]pyrazin-8-yl]amino]-2-ethylbenzamide;2,2,2-trifluoroacetic acid] here?
The IC90 was 180 nM.

`CCc1cc(Nc2nccn3c(-c4ccc(OC)c(F)c4F)cnc23)ccc1C(=O)NCC1CCN(CC(=O)O)CC1` [Example 559, 2-[4-[[[4-[[3-(2,3-difluoro-4-methoxy-phenyl)imidazo[1,2-a]pyrazin-8-yl]amino]-2-ethyl-benzoyl]amino]methyl]-1-piperidyl]acetic acid] was tested. Which IC90 did it give?
The IC90 was 270 nM.

How did the IC90 turn out when `CCc1cc(Nc2nccn3c(-c4ccc(OC(F)F)c(F)c4F)cnc23)ccc1C(=O)NCCNC(=O)CN(C)C` [Example 294, 4-[[3-[4-(difluoromethoxy)-2,3-difluorophenyl]imidazo[1,2-a]pyrazin-8-yl]amino]-N-[2-[[2-(dimethylamino)acetyl]amino]ethyl]-2-ethylbenzamide] was run?
The IC90 was 140 nM.

For `COc1ccc(-c2cnc3c(Nc4ccc(C(=O)N(C)CC5CCNCC5)c(C)c4)nccn23)cc1F` [Example 210, 4-[[3-(3-fluoro-4-methoxyphenyl)imidazo[1,2-a]pyrazin-8-yl]amino]-N,2-dimethyl-N-(piperidin-4-ylmethyl)benzamide;hydrochlo-ride], which IC90 is on record?
The IC90 was 630 nM.

With `CCc1cc(Nc2nccn3c(-c4ccc(Oc5ccccn5)c(F)c4F)cnc23)ccc1C(=O)NCCC(=O)N1CCN[C@H](CO)C1` [Example 475, 4-[[3-[2,3-difluoro-4-(2-pyridyloxy)phenyl]imidazo [1,2-a]pyrazin-8-yl]amino]-2-ethyl-N-[3-[(3S)-3-(hydroxymethyl)piperazin-1-yl]-3-oxo-propyl]benzamide] as the compound, how does the IC90 read?
The IC90 was 410 nM.

How did the IC90 turn out when `N#CCOc1ccc(-c2cnc3c(Nc4ccc(C(=O)NCCCCCCCN)c(Cl)c4)nccn23)c(F)c1F` [Example 521, N-(7-aminoheptyl)-2-chloro-4-((3-(4-(cyanomethoxy)-2,3-difluorophenyl)imidazo[1,2-a]pyrazin-8-yl)amino)benzamide] was run?
Its IC90 is 24 nM.

`CCc1cc(Nc2nccn3c(-c4ccc(OC(F)F)c(F)c4F)cnc23)ccc1C(=O)NCCc1nnc(C)[nH]1` [Example 295, 4-[[3-[4-(difluoromethoxy)-2,3-difluorophenyl]imidazo[1,2-a]pyrazin-8-yl]amino]-2-ethyl-N-[2-(5-methyl-4H-1,2,4-triazol-3-yl)ethyl]benzamide] was tested. Which IC90 did it give?
The IC90 was 140 nM.

For `CCc1cc(Nc2nccn3c(-c4ccc(OC)c(F)c4F)cnc23)ccc1C(=O)NCCNC(=O)[C@@H](N)CCN` [Example 399, N-[2-[[(2S)-2,4-diaminobutanoyl]amino]ethyl]-4-[[3-(2,3-difluoro-4-methoxy-phenyl)imidazo[1,2-a]pyrazin-8-yl]amino]-2-ethyl-benzamide; formic acid], which IC90 is on record?
The IC90 was 380 nM.

How did the IC90 turn out when `CNC(=O)c1ccc(Nc2nccn3c(-c4ccc(OC(F)F)cc4)cnc23)cc1I` [Example 91, 4-((3-(4-(difluoromethoxy)phenyl)imidazo[1,2-a]pyrazin-8-yl)amino)-2-iodo-N-methylbenzamide] was run?
Its IC90 is 260 nM.

For `CCc1cc(Nc2nccn3c(-c4ccc(OC(F)F)c(F)c4F)cnc23)ccc1C(=O)NCCCN` [Example 276, N-(3-aminopropyl)-4-[[3-[4-(difluoromethoxy)-2,3-difluorophenyl]imidazo[1,2-a]pyrazin-8-yl]amino]-2-ethylbenzamide;hydrochloride], which IC90 is on record?
The IC90 was 480 nM.

With `Cc1cc(Nc2nccn3c(-c4ccc(OCC#N)c(F)c4F)cnc23)ccc1C(=O)NCCNC(=O)[C@@H]1C[C@@H](O)CN1` [Example 365, (2S,4R)-N-[2-[[4-[[3-[4-(cyanomethoxy)-2,3-difluorophenyl]imidazo[1,2-a]pyrazin-8-yl]amino]-2-methylbenzoyl]amino]ethyl]-4-hydroxypyrrolidine-2-carboxamide] as the compound, how does the IC90 read?
The IC90 was 90 nM.

`CCc1cc(Nc2nccn3c(-c4ccc(OC)c(F)c4F)cnc23)ccc1C(=O)N[C@H](C)CCN` [Example 303, N-[(2R)-4-aminobutan-2-yl]-4-[[3-(2,3-difluoro-4-methoxyphenyl)imidazo[1,2-a]pyrazin-8-yl]amino]-2-ethylbenzamide;hydrochloride] was tested. Which IC90 did it give?
Its IC90 is 360 nM.

With `CCc1cc(Nc2nccn3c(-c4ccc(OC)c(F)c4F)cnc23)ccc1C(=O)NCCNC(=O)[C@@H](N)CN` [Example 400, N-[2-[[(2S)-2,3-diaminopropanoyl]amino]eth-yl]-4-[[3-(2,3-difluoro-4-methoxy-phenyl)imidazo[1,2-a]pyrazin-8-yl]amino]-2-ethyl-benzamide; formic acid] as the compound, how does the IC90 read?
Its IC90 is 320 nM.

How did the IC90 turn out when `CCc1cc(Nc2nccn3c(-c4ccc(OC)c(F)c4F)cnc23)ccc1C(=O)NC(C)CNC(C)=N` (stereo not drawn) [Example 169, 4-[[3-(2,3-difluoro-4-methoxyphenyl)imidazo[1,2-a]pyrazin-8-yl]amino]-N-[1-(ethanimidoylamino)propan-2-yl]-2-ethylbenzamide] was run?
The IC90 was 70 nM.

How did the IC90 turn out when `CCc1cc(Nc2nccn3c(-c4ccc(OC(F)F)c(F)c4F)cnc23)ccc1C(=O)NCCCO[C@@H]1O[C@H](CO)[C@@H](O)[C@H](O)[C@H]1O` [Example 442, 4-((3-(4-(difluoromethoxy)-2,3-difluorophenyl)imidazo[1,2-a]pyrazin-8-yl)amino)-2-ethyl-N-(3-(((2R,3R,4S,5S,6R)-3,4,5-trihydroxy-6-(hydroxymethyl)tetrahydro-2H-pyran-2-l)oxy)propyl)benzamide] was run?
The IC90 was 410 nM.

With `CCc1cc(Nc2nccn3c(-c4ccc(Oc5ncccn5)c(F)c4F)cnc23)ccc1C(=O)NCCCCCN` [Example 558, N-(5-aminopentyl)-4-((3-(2,3-difluoro-4-(pyrimidin-2-yloxy)phenyl)imidazo[1,2-a]pyrazin-8-yl)amino)-2-ethylbenzamide formate] as the compound, how does the IC90 read?
Its IC90 is 190 nM.

`COc1ccc(-c2cnc3c(Nc4ccc(C(=O)NCCCN)c(C)c4)nccn23)c(F)c1F` [Example 64, N-(3-aminopropyl)-4-((3-(2,3-difluoro-4-methoxyphenyl)imidazo [1,2-a]pyrazin-8-yl)amino)-2-methylbenzamide] was tested. Which IC90 did it give?
Its IC90 is 230 nM.
